# Like-named read-outs stand apart in the source and are kept apart here.
# Columns and labels:
# [1] = target: T1, Muscarine M1 (GPCR-A-MA-ACH M1) (Homo sapiens, UniProt P11229); test: Muscarine M1 cell-based functional assay (CHO cells, Ca2+ - FLIPR Fluorimetry); details: for EC50: read-out: Cell funct. Musc. M1 Agonism pEC50 (converted)
# T1 construct: expressed in transfected cells; host or cells: CHO cells
# T1 sequence (P11229 1-460): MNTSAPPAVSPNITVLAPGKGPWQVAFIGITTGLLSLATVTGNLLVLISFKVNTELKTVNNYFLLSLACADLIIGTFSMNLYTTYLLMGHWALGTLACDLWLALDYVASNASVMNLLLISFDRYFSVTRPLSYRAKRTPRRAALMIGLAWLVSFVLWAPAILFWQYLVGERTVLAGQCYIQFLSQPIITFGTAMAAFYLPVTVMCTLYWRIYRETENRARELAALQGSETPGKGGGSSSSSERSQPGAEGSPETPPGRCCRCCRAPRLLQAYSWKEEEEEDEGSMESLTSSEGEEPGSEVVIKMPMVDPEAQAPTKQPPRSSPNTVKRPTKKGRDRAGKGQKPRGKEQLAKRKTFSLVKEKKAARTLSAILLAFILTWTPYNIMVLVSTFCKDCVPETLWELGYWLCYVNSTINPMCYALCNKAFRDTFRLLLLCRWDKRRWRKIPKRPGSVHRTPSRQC
# [2] = target: T2, Muscarine M2 (GPCR-A-MA-ACH M2) (Homo sapiens, UniProt P08172); test: Muscarine M2 receptor binding
# T2 construct: expressed in transfected cells; host or cells: CHO cells
# T2 sequence (P08172 1-466): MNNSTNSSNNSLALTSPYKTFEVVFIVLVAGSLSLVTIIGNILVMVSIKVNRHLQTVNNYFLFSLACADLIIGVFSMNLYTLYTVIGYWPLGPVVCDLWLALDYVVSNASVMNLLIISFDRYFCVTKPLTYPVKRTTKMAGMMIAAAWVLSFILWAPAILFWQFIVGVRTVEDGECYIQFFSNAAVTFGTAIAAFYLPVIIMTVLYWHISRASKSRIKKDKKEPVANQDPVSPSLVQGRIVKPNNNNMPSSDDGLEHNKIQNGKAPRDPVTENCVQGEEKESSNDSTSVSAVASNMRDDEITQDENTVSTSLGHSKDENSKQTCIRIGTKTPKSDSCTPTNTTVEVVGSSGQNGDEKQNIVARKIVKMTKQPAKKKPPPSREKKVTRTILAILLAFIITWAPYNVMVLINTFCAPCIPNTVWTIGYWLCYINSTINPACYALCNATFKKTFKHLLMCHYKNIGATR
# [3] = target: T3, Muscarine M4 (GPCR-A-MA-ACH M4) (Homo sapiens, UniProt P08173); test: Muscarine M4 receptor binding, 3H-Oxotremorine
# T3 construct: expressed in transfected cells; host or cells: CHO cells
# T3 sequence (P08173 1-479): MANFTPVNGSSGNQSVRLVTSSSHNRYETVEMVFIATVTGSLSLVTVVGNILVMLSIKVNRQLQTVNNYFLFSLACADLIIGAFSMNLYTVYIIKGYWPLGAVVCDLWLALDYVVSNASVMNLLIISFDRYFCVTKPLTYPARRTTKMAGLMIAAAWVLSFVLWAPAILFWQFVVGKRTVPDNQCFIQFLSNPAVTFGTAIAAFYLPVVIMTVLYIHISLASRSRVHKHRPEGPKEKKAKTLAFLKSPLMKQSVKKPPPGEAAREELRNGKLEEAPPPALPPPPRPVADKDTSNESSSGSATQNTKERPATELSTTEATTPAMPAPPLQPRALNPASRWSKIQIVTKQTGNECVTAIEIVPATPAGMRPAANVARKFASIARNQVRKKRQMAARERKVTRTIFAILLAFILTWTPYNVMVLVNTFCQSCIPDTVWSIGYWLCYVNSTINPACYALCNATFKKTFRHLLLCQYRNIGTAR
# Experimental: (§1) Compounds were dissolved in DMSO (10 mM) and diluted in assay buffer to test concentration. Prime testing was at 10 μM; for actives (PI, percent inhibition with respect to total and non-specific binding >40%) testing was continued at lower concentrations in 10-fold dilutions: 1 μM, 0.1 μM, etc.
# (§2) Following incubation of compound with the receptor preparation (from ‘Tissue’) and the Ligand at the time and temperature indicated, the receptor preparations were rapidly filtered under vacuum through glass fibre filters; the filters were washed extensively with an ice-cold buffer using a harvester. Bound radioactivity was measured by scintillation counting using a liquid scintillation cocktail.
# (§3) Results were expressed as percentage of total Ligand binding and that of Non Specific Binding, per concentration of Compound tested (duplicates); from the concentration—displacement curves IC50 values were determined by non-linear regression analysis using Hill equation curve fitting. The inhibition constants (Ki) were calculated from the Cheng-Prushoff equation Ki=IC50/(1+L/Kd), where L is the concentration of radioligand in the assay, and Kd the affinity of the radioligand for the receptor. Results were expressed as pKi's, means±SD of at least 2 separate experiments; i.e. outliers (outside+/−1 std of mean) and discrepancies were excluded.
# [4] = target: T4, Muscarine M2 (GPCR-A-MA-ACH M2) (Cavia porcellus, UniProt H0VRN8); test: Muscarine M2 functional assay, isolated organ (left atrium, electrically paced), agonist and antagonist mode; parameters: species or system Guinea Pig; details: for EC50: read-out: Cell funct. Musc. M2 Agonism pEC50 (converted)
# T4 construct: from tissue; host or cells: guinea pig left atrium (electrically paced)
# T4 sequence (H0VRN8 1-466): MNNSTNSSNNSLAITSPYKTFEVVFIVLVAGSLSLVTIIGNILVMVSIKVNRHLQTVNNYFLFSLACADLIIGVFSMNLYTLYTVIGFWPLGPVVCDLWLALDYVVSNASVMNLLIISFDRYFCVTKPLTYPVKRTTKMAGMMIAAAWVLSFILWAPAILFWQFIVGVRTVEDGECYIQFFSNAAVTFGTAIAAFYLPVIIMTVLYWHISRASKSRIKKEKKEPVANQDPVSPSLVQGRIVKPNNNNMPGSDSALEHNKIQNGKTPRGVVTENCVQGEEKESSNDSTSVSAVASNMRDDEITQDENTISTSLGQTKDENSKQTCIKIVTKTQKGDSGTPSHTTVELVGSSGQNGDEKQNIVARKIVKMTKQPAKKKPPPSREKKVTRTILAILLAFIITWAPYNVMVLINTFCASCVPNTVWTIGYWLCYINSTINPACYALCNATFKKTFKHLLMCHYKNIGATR
# [5] = target: T1, Muscarine M1 (GPCR-A-MA-ACH M1); test: Muscarine M1 receptor binding, 3H-Pirenzepine; details: human M1, CHO cells, ligand 2 nM, 60 min/22° C.; for Ki: read-out: RB Musc. M1 3H-Pirenzepine pKi (converted)
# Experimental: as §1, §2, §3
# [6] = target: T5, Muscarine M3 (GPCR-A-MA-ACH M3) (Cavia porcellus, UniProt H0W1Z3); test: Muscarine M3 functional assay, isolated organ (ileum), agonist and antagonist mode; parameters: species or system Guinea Pig; details: for EC50: read-out: Cell funct. Musc. M3 Agonism pEC50 (converted)
# T5 construct: from tissue; host or cells: guinea pig ileum
# T5 sequence (H0W1Z3 1-590): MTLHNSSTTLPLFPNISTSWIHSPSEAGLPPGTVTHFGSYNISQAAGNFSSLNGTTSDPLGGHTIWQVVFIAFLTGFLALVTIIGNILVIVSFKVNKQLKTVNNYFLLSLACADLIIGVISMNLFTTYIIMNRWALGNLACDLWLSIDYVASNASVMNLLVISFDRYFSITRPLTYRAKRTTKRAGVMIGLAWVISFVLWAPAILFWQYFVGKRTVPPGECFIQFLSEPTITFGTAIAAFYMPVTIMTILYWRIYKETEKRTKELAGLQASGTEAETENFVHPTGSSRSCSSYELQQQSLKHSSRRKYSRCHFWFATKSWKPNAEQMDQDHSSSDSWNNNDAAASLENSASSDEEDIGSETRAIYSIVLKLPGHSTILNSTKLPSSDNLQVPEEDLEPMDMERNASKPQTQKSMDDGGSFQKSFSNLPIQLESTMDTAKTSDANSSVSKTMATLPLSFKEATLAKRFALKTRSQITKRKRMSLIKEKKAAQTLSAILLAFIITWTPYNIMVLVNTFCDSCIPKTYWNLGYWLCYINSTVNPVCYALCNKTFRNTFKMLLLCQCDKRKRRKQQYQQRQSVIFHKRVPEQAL
# [7] = target: T3, Muscarine M4 (GPCR-A-MA-ACH M4); test: Muscarine M4 receptor binding, 3H-4DAMP; details: human M4, CHO cells, ligand 0.2 nM, 60 min/22° C.; for Ki: read-out: RB Musc. M4 3H-DAMP pKi (converted)
# Experimental: as §1, §2, §3
# [8] = target: T6, Muscarine M3 (GPCR-A-MA-ACH M3) (Homo sapiens, UniProt P20309); test: Muscarine M3 receptor binding
# T6 construct: expressed in transfected cells; host or cells: CHO cells
# T6 sequence (P20309 whole entry): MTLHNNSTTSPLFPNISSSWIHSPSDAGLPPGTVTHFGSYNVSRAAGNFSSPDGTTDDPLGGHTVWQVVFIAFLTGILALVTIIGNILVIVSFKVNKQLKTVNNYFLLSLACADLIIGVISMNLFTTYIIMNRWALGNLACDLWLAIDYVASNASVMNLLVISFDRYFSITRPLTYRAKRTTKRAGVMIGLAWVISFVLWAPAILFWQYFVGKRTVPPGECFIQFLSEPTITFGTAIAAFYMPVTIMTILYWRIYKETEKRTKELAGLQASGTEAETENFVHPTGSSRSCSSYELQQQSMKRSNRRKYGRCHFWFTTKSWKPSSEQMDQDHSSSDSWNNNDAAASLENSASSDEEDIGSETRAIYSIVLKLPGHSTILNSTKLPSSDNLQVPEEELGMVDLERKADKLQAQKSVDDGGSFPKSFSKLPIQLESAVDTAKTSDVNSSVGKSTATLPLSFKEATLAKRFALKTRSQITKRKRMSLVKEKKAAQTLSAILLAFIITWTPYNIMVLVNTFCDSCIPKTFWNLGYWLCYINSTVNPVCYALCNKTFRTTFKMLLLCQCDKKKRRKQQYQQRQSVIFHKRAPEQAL
# [9] = target: T3, Muscarine M4 (GPCR-A-MA-ACH M4); test: Muscarine M4 cell-based functional assay (CHO cells, Ca2+ - Aequorin luminescence)
# Experimental: Compounds were dissolved in DMSO (10 mM) and diluted in assay buffer to test concentration. Prime testing was at 1 μM; for actives in antagonist mode (PI, percent inhibition with respect to reference agonist and blank>30%) as well as actives in agonist mode (PS, percent stimulation with respect to reference agonist and blank>30%) testing was continued at lower concentrations in 10-fold dilutions: 0.1 μM, 0.01 μM, etc.
# Cells were incubated with compound and the response indicated was measured.
# The results are expressed as a percent of reference agonist values and blanks in the presence of the test compound, percent stimulation for agonist mode; for the antagonist mode (test compound in the presence of reference agonist) as percent inhibition. The EC50 values (concentration causing a half-maximal stimulation of control values), IC50 values (concentration causing a half-maximal inhibition of control values) were determined by non-linear regression analysis of the concentration-response curves using Hill equation curve fitting.
# [10] = human M1, CHO cells, agonist mode, reference agonist acetylcholine
# [11] = human M2, CHO cells, receptor binding
# [12] = human M4, CHO cells, receptor binding, ligand 6 nM, 30 min/25° C., read-out: RB Musc. M4 3H-Oxotremorine pKi (converted)
# [13] = read-out: Cell funct. Musc. M2 Antagonism pA2 (converted)
# [14] = human M3, CHO cells, receptor binding
# [15] = human M4, CHO cells, agonist mode, reference agonist oxotremorine, read-out: Cell funct. Musc. M4 Agonism pEC50 (converted)
Compound,"EC50 [1, 10]","Ki [2, 11]","Ki [3, 12]",EC50 [4],"Kb [4, 13]",Ki [5],Kb [6],EC50 [6],Ki [7],"Ki [8, 14]","EC50 [9, 15]",EC50 [1],Ki [2],Ki [3],Kb [4],Ki [8],also measured
CN1CCC=C(c2n[nH]cc2SCCCCCSc2c[nH]nc2C2=CCCN(C)C2)C1 [Compound 22C],> 1000 nM,398 nM,158 nM,> 1000 nM,> 1000 nM,251 nM,> 1000 nM,> 1000 nM,63.1 nM,31.6 nM,> 10000 nM,,,,,,
"CC(C)CCSc1c[nH]nc1C1=CCCN(C)C1 [Compound 22S, 3-[4-(3-methyl-butylsulfanyl)-1H-pyrazol-3-yl]-1,2,5,6-tetrahydro-1-methylpyridine]",398 nM,2000 nM,158 nM,> 1000 nM,> 1000 nM,126 nM,100 nM,> 1000 nM,50.1 nM,50.1 nM,> 10000 nM,,,,,,
"CCCCCCOc1c[nH]nc1C1=CCCN(C)C1 [Compound 33B, 3-(4-Hexyloxy-1H-pyrazol-3-yl]-1,2,5,6-tetrahydro-1-methylpyridine]",100 nM,1260 nM,200 nM,> 1000 nM,> 1000 nM,1000 nM,> 1000 nM,> 1000 nM,316 nM,398 nM,501 nM,,,,,,
"CCCSc1c[nH]nc1C1CN2CCC1CC2 (stereo not shown) [Compound 49E, 3-(4-Propylsulfanyl-1H-pyrazol-3-yl)-1-azabicyclo[2.2.2]octane]",,,,794 nM,,316 nM,> 1000 nM,> 1000 nM,39.8 nM,,,10 nM,501 nM,79.4 nM,> 1000 nM,126 nM,EC50 [9]: 79.4 nM
"c1ccc(CCSc2c[nH]nc2C2CN3CCC2CC3)cc1 (stereo not shown) [Compound 49G, 3-(4-Phenethylsulfanyl-1H-pyrazol-3-yl)-1-azabicyclo[2.2.2]octane]",,,,,,,,,,,,,,,,,Cell funct. Musc. M1 Agonism pEC50 [1]: 7.3; RB Musc M2 methoctramine [2]: 6.1; RB Musc. M4 3H-Oxotremorine pKi [3]: 7.6; Cell funct. Musc. M2 Agonism pEC50 [4]: <6; Cell funct. Musc. M2 Antagonism pA2 [4]: <6; RB Musc. M1 3H-Pirenzepine pKi [5]: 6.2; Cell funct. Musc. M3 Agonism pEC50 [6]: <6; Cell funct. Musc. M3 Antagonism pA2 [6]: <6; RB Musc. M4 3H-DAMP pKi [7]: 7.0; RB Musc M3 4-DAMP [8]: 6.5; Cell funct. Musc. M4 Agonism pEC50 [9]: 8.0
"CCCCOc1c[nH]nc1C1CN2CCC1CC2 (stereo not shown) [Compound 52A, 3-(4-Butoxy-1H-pyrazol-3-yl)-1-azabicyclo[2.2.2]octane]",,,,> 1000 nM,,794 nM,> 1000 nM,> 1000 nM,251 nM,,,20 nM,3980 nM,126 nM,> 1000 nM,794 nM,
"CCCOc1c[nH]nc1C1CN2CCC1CC2 (stereo not shown) [Compound 52B, 3-(4-Propoxy-1H-pyrazol-3-yl)-1-azabicyclo[2.2.2]octane]",,,,> 1000 nM,,631 nM,> 1000 nM,> 1000 nM,126 nM,,,7.94 nM,1260 nM,63.1 nM,25.1 nM,316 nM,EC50 [9]: 100 nM
"CCCCCOc1c[nH]nc1C1CN2CCC1CC2 (stereo not shown) [Compound 52C, 3-(4-Pentyloxy-1H-pyrazol-3-yl)-1-azabicyclo[2.2.2]octane]",,,,> 1000 nM,,1000 nM,> 1000 nM,> 1000 nM,251 nM,,,12.6 nM,2510 nM,63.1 nM,> 1000 nM,631 nM,
"CCCCCSc1nc[nH]c1C1=CCCN(C)C1 [Compound 76A, 3-(5-Pentylsulfanyl-3H-imidazol-4-yl)-1,2,5,6-tetrahydro-1-methylpyridine]",126 nM,5010 nM,631 nM,> 1000 nM,> 1000 nM,2510 nM,> 1000 nM,> 1000 nM,316 nM,794 nM,7940 nM,,,,,,

# From patent US8735388B2, “Heterocyclic compounds with affinity to muscarinic receptors” (Abbvie B. V. A., priority 2007, dated 2014)
